Laboratory results published in patent publication US20090227602A1, “COMPOSITIONS AND TREATMENTS FOR INHIBITING KINASE AND/OR HMG-COA REDUCTASE” (priority 2005, published 2009).
Structures can show the parent of a compound that is named as a salt. Where two headings read alike, the source gives them in different places.

What was measured:
[1] = target: T1, recombinant human p38α MAPK (Homo sapiens, UniProt Q16539); assay: Human p38α MAP kinase inhibition assay (cell-free); format: biochemical; settings: MBP substrate, 100 μM ATP
T1 construct: purchased UBI 14-251; host or cells: E. coli
Protocol: (§1) The biological activities of compounds of the present invention were measured in assays which include: • 1) Inhibition of rat liver HMG-CoA reductase. Further details on the assay are present in Heller, R. A.; Gould, R. G. Biochem. Biophys. Research Commun. 1973, 50, 859 and Kubo, M.; Strott, C. A.; Endocrinology 1987, 120, 214. • 2) Inhibition of recombinant human p38αMAPK • 3) Inhibition of lipopolysaccharide (LPS)-stimulated release of tumor necrosis factor alpha (TNFα) from human peripheral blood mononuclear cells (PBMC).
Human p38αMAP Kinase Inhibition Assay: In vitro cell-free p38αMAP kinase inhibition assays were conducted by the method as described in Clerk et al., FEBS Lett., 426:93-96 (1998) for a number of lactones in formulas I/IIa/IIb. Briefly, human recombinant p38α protein kinase expressed in E. coli (UBI #14-251) was used. Myelin basic protein (MBP, UBI #13-110) was employed as substrate, and microtiter plate wells were coated with MBP (0.01 mg/ml) overnight at 4° C. Candidate compound and/or vehicle was preincubated with 0.075 μg/mL enzyme in modified HEPES buffer pH 7.4 at 25° C. for 15 minutes. The reaction was initiated by addition of 100 μM ATP and allowed to proceed for another 60 minutes. The reaction was terminated by aspirating the solution. Phosphorylated MBP was detected by incubation with a mouse monoclonal IgG2a anti-phosphoMBP antibody. Bound anti-phosphoMBP antibody was quantitated by incubation with a HRP conjugated goat anti-mouse IgG. The protein kinase activity was proportional to the readings of optical density at 405 nm resulting from reaction with an ABTS Microwell Peroxidase Substrate System.

[2] = target: T2, rat liver hydroxymethylglutaryl-CoA reductase (Rattus norvegicus, UniProt P51639); assay: Inhibition of rat liver HMG-CoA reductase; format: biochemical; settings: rat liver HMG-CoA reductase activity inhibited by 50%; read-out: HMG-CoA R IC50
T2 sequence (P51639 1-887): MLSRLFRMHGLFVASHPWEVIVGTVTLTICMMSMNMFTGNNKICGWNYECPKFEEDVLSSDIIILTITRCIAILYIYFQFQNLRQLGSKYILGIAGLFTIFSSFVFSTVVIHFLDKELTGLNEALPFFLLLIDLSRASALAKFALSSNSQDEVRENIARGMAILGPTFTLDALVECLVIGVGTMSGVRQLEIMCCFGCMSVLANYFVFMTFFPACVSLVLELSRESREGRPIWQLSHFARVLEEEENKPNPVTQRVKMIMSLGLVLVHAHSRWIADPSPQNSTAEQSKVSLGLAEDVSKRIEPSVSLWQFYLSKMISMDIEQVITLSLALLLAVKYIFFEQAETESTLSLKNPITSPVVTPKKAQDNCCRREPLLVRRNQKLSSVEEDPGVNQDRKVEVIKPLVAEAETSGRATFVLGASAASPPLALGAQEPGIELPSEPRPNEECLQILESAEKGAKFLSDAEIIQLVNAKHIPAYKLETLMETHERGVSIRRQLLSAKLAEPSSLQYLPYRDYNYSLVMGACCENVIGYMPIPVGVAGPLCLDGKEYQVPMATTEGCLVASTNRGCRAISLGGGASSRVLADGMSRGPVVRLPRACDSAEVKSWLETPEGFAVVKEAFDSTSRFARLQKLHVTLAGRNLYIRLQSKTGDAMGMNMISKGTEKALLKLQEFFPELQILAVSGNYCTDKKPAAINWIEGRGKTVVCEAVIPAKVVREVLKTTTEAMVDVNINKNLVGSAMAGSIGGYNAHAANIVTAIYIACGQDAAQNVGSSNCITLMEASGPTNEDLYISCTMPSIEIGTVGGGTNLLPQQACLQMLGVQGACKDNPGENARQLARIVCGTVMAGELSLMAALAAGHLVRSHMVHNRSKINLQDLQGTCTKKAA
Protocol: as §1

[3] = tested on: lipopolysaccharide-stimulated release of TNFα from human peripheral blood mononuclear cells (PBMC); assay: Whole cell LPS-stimulated TNF-α release assay; format: cell-based; settings: read-out: TNFα Release IC50
Protocol: as §1
Whole Cell LPS-Stimulated TNF-α Release Assay: The procedure as described in Welker et al., Int. Arch. Allergy and Immunol. 109:110-115 (1996) was followed. Briefly, a candidate compound and/or vehicle was preincubated with human peripheral blood mononuclear leukocytes (PBML, 5×10^5/ml) cells in AIM-V medium pH 7.4 for 2 hours. Lipopolysaccharide (LPS, 25 ng/ml) was added to stimulate the cells, which was incubated overnight at 37° C. TNF-α cytokine levels in the conditioned medium was then quantitated using a sandwich ELISA kit.

T1 sequence (Q16539 whole entry): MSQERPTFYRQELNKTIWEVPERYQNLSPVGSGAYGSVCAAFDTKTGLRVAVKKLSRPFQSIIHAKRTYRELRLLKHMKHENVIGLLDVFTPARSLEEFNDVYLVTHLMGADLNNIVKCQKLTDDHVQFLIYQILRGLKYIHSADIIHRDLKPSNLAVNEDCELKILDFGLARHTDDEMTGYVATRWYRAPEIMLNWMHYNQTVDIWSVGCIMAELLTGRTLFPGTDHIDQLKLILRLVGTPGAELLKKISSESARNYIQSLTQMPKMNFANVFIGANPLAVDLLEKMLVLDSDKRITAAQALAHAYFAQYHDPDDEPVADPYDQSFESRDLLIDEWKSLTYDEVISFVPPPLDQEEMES

Row | Compound | IC50 [1] | IC50 [2] | IC50 ([3]; LPS-stimulated human PBMC) | IC50 ([3]; Homo sapiens, PBMC)
1 | CC(C)c1nc(-c2ccc(F)cc2)c(-c2ccnc(Nc3ccccc3)n2)n1/C=C/[C@@H](O)C[C@@H](O)CC(=O)O (racemic) [Example 28, (3R,5S,E) and (3S,5R,E)-7-(4-(4-fluorophenyl)-2-isopropyl-5-(2-(phenylamino)pyrimidin-4-yl)-1H-imidazol-1-yl)-3,5-dihydroxyhept-6-enoic acid sodium salt] | 0.27 µM | 0.0048 µM | 9.7 µM | –
2 | CC(C)c1nc(-c2ccc(F)cc2)c(-c2ccnc(Nc3ccccc3)n2)n1/C=C/[C@@H]1C[C@@H](O)CC(=O)O1 (racemic) [Example 29, (4R,6S) and (4S,6R)-6-((E)-2-(4-(4-fluorophenyl)-2-isopropyl-5-(2-(phenylamino)pyrimidin-4-yl)-1H-imidazol-1-yl)vinyl)-4-hydroxytetrahydro-2H-pyran-2-one] | < 0.1 µM | – | 19 µM | –
3 | CC(C)(C)c1nc(-c2ccc(F)cc2)c(-c2ccncc2)n1/C=C/[C@@H](O)C[C@@H](O)CC(=O)O (racemic) [Example 33, (3R,5S,E) and (3S,5R,E)-7-(2-tert-butyl-4-(4-fluorophenyl)-5-(pyridin-4-yl)-1H-imidazol-1-yl)-3,5-dihydroxyhept-6-enoic acid sodium salt] | 6 µM | 0.011 µM | 230 µM | –
4 | CC(C)(C)c1nc(-c2ccc(F)cc2)c(-c2ccncc2)n1/C=C/[C@@H]1C[C@@H](O)CC(=O)O1 (racemic) [Example 34, (4R,6S) and (4S,6R)-6-((E)-2-(2-tert-butyl-4-(4-fluorophenyl)-5-(pyridin-4-yl)-1H-imidazol-1-yl)vinyl)-4-hydroxytetrahydro-2H-pyran-2-one] | 1.8 µM | – | 190 µM | –
5 | CC(C)c1nc(-c2ccc(F)cc2)c(-c2ccnc(Nc3ccccc3)n2)n1CC[C@@H]1C[C@@H](O)CC(=O)O1 [Example 24, (4R,6R)-6-(2-(4-(4-fluorophenyl)-2-isopropyl-5-(2-(phenylamino)pyrimidin-4-yl)-1H-imidazol-1-yl)ethyl)-4-hydroxytetrahydro-2H-pyran-2-one] | 0.11 µM | – | < 3 µM | –
6 | CC(C)c1nc(-c2ccc(F)cc2)c(-c2ccnc(Nc3ccccc3)n2)n1CC[C@@H](O)C[C@@H](O)CC(=O)O [Example 25, (3R,5R)-7-(4-(4-fluorophenyl)-2-isopropyl-5-(2-(phenylamino)pyrimidin-4-yl)-1H-imidazol-1-yl)-3,5-dihydroxyheptanoic acid sodium salt] | < 0.1 µM | 0.098 µM | 9.7 µM | –
7 | O=C(O)C[C@H](O)C[C@H](O)CCn1c(-c2ccccc2)nc(-c2ccc(F)cc2)c1-c1ccncn1 [Example 39, (3R,5R)-7-(4-(4-fluorophenyl)-2-phenyl-5-(pyrimidin-4-yl)-1H-imidazol-1-yl)-3,5-dihydroxyheptanoic acid calcium salt] | 14 µM | > 1 µM | – | > 300 µM
8 | O=C1C[C@H](O)C[C@@H](CCn2c(-c3ccccc3)nc(-c3ccc(F)cc3)c2-c2ccncn2)O1 [Example 40, (4R,6R)-6-(2-(4-(4-fluorophenyl)-2-phenyl-5-(pyrimidin-4-yl)-1H-imidazol-1-yl)ethyl)-4-hydroxytetrahydro-2H-pyran-2-one] | 1.4 µM | – | 26 µM | –
